Results reported in US4663320A, “(2-oxo-1,2,3,5-tetrahydroimidazo[2,1-b]quinoazolinyl)oxyalkylamides, compositions and the use thereof” (Syntex (U.S.A.) Inc., priority 1985, dated 1987).

Key:
[1] = test system: Human platelet cyclic AMP phosphodiesterase; assay: Cyclic AMP phosphodiesterase assay (human platelet); format: biochemical; details: for IC50: human platelet phosphodiesterase, 1 μM cyclic AMP as substrate; for Relative Potency: relative to theophylline (assigned a value of 1) on human platelet phosphodiesterase
Description: (§1) The inhibition of cyclic AMP phosphodiesterase activity by the subject compounds was assayed by the method of Filburn and Karn, Analyt. Biochem., 52:505-516 (1973), using 1 μM cyclic AMP as the substrate. Human platelet cyclic AMP phosphodiesterase was obtained from human donors. Platelets were isolated and washed by centrifugation, the membranes ruptured by a sequential freeze-thaw procedure and hypotonic lysis and the soluble enzyme isolated by high speed centrifugation. The enzyme was stored in aliquots at -20° C.
(§2) This table contains the IC50 values for human platelet phosphodiesterase and IC25 values for rat heart phosphodiesterase.

[2] = test system: rat heart phosphodiesterase; assay: Cyclic AMP phosphodiesterase inhibition (rat heart); format: biochemical
Description: as §1, §2

Mongrel dogs = assay: Inotropic activity in anesthetized dogs; format: in vivo; details: dog
Description: Mongrel dogs were anesthetized intravenously with 35 mg/Kg sodium pentobarbital and supplemented as needed. Blood pressure was measured with a Statham pressure transducer via a cannula inserted from a femoral artery into the abdominal aorta. Heart rate was recorded by a cardiotachometer from a lead II electrocardiogram. Right ventricular contractile force was recorded from a Walton-Brodie strain gauge sutured to the right ventricle following a midsternal thoracotomy. A Harvard respirator was used to ventilate the dogs with room air through an endotracheal tube. The dog was bilaterally vagotomized. Following a midline laparotomy, a cannula was sutured into the duodenum for intraduodenal administration of test compound. A femoral vein was cannulated for administration of isoproterenol. All data were recorded on a Beckman R611 Dynograph.
To assess the responsiveness of each dog, isoproterenol was given intravenously at half-log interval doses from 0.007 to 2.1 or 6.67 μg/Kg. The test compound was then administered intraduodenally, usually at a low dose of 2 mg/Kg and subsequently at higher doses of 6.32 and/or 20 mg/Kg, if necessary. In a few instances, some compounds administered intraduodenally at dose levels from 0.316 to 3.16 mg/Kg.

| SMILES | IC50 [1] | Relative Potency [1] | Rat Heart IC25 [2] | further results |
| --- | --- | --- | --- | --- |
| CC(C)C(=O)OCCN(C(=O)CCCOc1ccc2c(c1)CN1CC(=O)NC1=N2)C1CCCCC1 | 1.1 nM | 245,000 | – | – |
| CC(C)(C)C(=O)OCCN(C(=O)CCCOc1ccc2c(c1)CN1CC(=O)NC1=N2)C1CCCCC1 | 1 nM | 270,000 | – | – |
| O=C1CN2Cc3cc(OCCCC(=O)N4CCCC5CCCCC54)ccc3N=C2N1 (racemic) [(±)-decahydroquinloninyl-4-(2-oxo-1,2,3,5-tetrahydroimidazo[2,1-b]quinazolin-7-yl)oxybutyramide] | 13.5 nM | 20,000 | 200 nM | – |
| O=C1CN2Cc3cc(OCCCC(=O)N4CCCCC4CC(C4CCCCC4)C4CCCCC4)ccc3N=C2N1 (racemic) [perhexylenyl (n = 3, position 7), perhexylenyl-4-(2-oxo-1,2,3,5-tetrahydroimidazo[2,1-b]quinazolin-7-yl)oxybutyramide] | 1.8 nM | 146,000 | 36 nM | – |
| O=C1CN2Cc3cc(OCCCC(=O)N(Cc4ccccc4)Cc4ccccc4)ccc3N=C2N1 [N,N--dibenzyl (n = 3, position 7), N,N-dibenzyl-4-(2-oxo-1,2,3,5-tetrahydroimidazo[2,1-b]quinazolin-7-yl)oxybutyramide] | 9.2 nM | 29,300 | 60 nM | – |
| O=C1CN2Cc3cc(OCCCC(=O)N(C4CCCCC4)C4CCCCC4)ccc3N=C2N1 [N,N--dicyclohexyl (n = 3, position 7), N,N-dicyclohexyl-4-(2-oxo-1,2,3,5-tetrahydroimidazo[2,1-b]quinazolin-7-yl)oxybutyramide] | 1.4 nM | 186,000 | 16 nM | – |
| O=C1CN2Cc3cc(OCCCC(=O)NC4CCCCC4)ccc3N=C2N1 [N--cyclohexyl (n = 3, position 7), N-cyclohexyl-4-(2-oxo-1,2,3,5-tetrahydroimidazo-[2,1-b]quinazolin-7-yl)oxybutyramide] | 72 nM | 38,000 | 180 nM | – |
| CN(Cc1ccccc1)C(=O)CCCOc1ccc2c(c1)CN1CC(=O)NC1=N2 [N--methyl-N--benzyl (n = 3, position 7), N-benzyl-N-methyl-4-(2-oxo-1,2,3,5-tetrahydroimidazo[2,1-b]quinazolin-7-yl)oxybutyramide] | 26 nM | 10,400 | 240 nM | – |
| CN(C(=O)CCCOc1ccc2c(c1)CN1CC(=O)NC1=N2)c1ccccc1 [N--methyl-N--phenyl (n = 3, position 7), N-phenyl-N-methyl-4-(2-oxo-1,2,3,5-tetrahydroimidazo[2,1-b]quinazolin-7-yl)oxybutyramide] | 26 nM | 10,400 | 350 nM | – |
| CN(C(=O)CCCOc1ccc2c(c1)CN1CC(=O)NC1=N2)C1CCCCCC1 [N-cycloheptyl-N-methyl-4-(2-oxo-1,2,3,5-tetrahydroimidazo[2,1-b]quinazolin-7-yl)oxybutyramide] | 1 nM | 270,000 | < 10 nM | – |
| O=C1CN2Cc3cc(OCCCC(=O)N(CCO)C4CCCCC4)ccc3N=C2N1 [N-cyclohexyl-N-(2-hydroxyethyl)-4-(2-oxo-1,2,3,5-tetrahydroimidazo[2,1-b]quinazolin-7-yl)oxybutyramide] | 12.5 nM | 21,600 | 70 nM | – |
| COCCN(C(=O)CCCOc1ccc2c(c1)CN1CC(=O)NC1=N2)C1CCCCC1 [N-cyclohexyl-N-(2-methoxyethyl)-4-(2-oxo-1,2,3,5-tetrahydroimidazo[2,1-b]quinazolin-7-yl)oxybutyramide] | 1.3 nM | 208,000 | < 10 nM | – |
| CC(=O)OCCN(C(=O)CCCOc1ccc2c(c1)CN1CC(=O)NC1=N2)C1CCCCC1 [N-cyclohexyl-N-(acetoxyethyl)-4-(2-oxo-1,2,3,5-tetrahydroimidazo[2,1-b]quinazolin-7-yl)oxybutyramide] | 1.4 nM | 193,000 | – | – |
| O=C1CN2Cc3cc(OCCCC(=O)N(CCOC(=O)c4ccccc4)C4CCCCC4)ccc3N=C2N1 [N-cyclohexyl-N-(benzoyloxyethyl)-4-(2-oxo-1,2,3,5-tetrahydroimidazo[2,1-b]quinazolin-7-yl)oxybutyramide] | 0.94 nM | 287,000 | – | – |
| CCN(C(=O)CCCOc1ccc2c(c1)CN1CC(=O)NC1=N2)C1CCCCC1 [N-cyclohexyl-N-ethyl-4-(2-oxo-1,2,3,5-tetrahydroimidazo[2,1-b]quinazolin-7-yl)oxybutyramide] | 1.5 nM | 180,000 | < 10 nM | – |
| CC(C)N(C(=O)CCCOc1ccc2c(c1)CN1CC(=O)NC1=N2)C1CCCCC1 [N-cyclohexyl-N-isopropyl-4-(2-oxo-1,2,3,5-tetrahydroimidazo[2,1-b]quinazolin-7-yl)oxybutyramide] | 3.2 nM | 84,000 | 15 nM | – |
| CN(C(=O)COc1ccc2c(c1)CN1CC(=O)NC1=N2)C1CCCCC1 [N-cyclohexyl-N-methyl-2-(2-oxo-1,2,3,5-tetrahydroimidazo[2,1-b]quinazolin-7-yl)oxyacetamide] | 820 nM | 330 | 4,400 nM | – |
| CN(C(=O)CCCOc1cccc2c1CN1CC(=O)NC1=N2)C1CCCCC1 [N-cyclohexyl-N-methyl-4-(2-oxo-1,2,3,5-tetrahydroimidazo[2,1-b]quinazolin-6-yl)oxybutyramide] | 2000 nM | 135 | – | – |
| CN(C(=O)CCCOc1ccc2c(c1)N=C1NC(=O)CN1C2)C1CCCCC1 [N-cyclohexyl-N-methyl-4-(2-oxo-1,2,3,5-tetrahydroimidazo[2,1-b]quinazolin-8-yl)oxybutyramide] | 150 nM | 1,800 | – | – |
| CN(C(=O)CCCOc1cccc2c1N=C1NC(=O)CN1C2)C1CCCCC1 [N-cyclohexyl-N-methyl-4-(2-oxo-1,2,3,5-tetrahydroimidazo[2,1-b]quinazolin-9-yl)oxybutyramide] | > 10000 nM | < 2.7 | – | – |
| CN(C(=O)CCCOc1ccc2c(c1)CN1C(=N2)NC(=O)[C@H]1CO)C1CCCCC1 [N-cyclohexyl-N-methyl-4-(2-oxo-3-D-hydroxymethyl-1,2,3,5-tetrahydroimidazo[2,1-b]quinazolin-7-yl)oxybutyramide] | 18.5 nM | 14,600 | 72 nM | – |
| CN(C(=O)CCCOc1ccc2c(c1)CN1C(=N2)NC(=O)[C@@H]1CO)C1CCCCC1 [N-cyclohexyl-N-methyl-4-(2-oxo-3-L-hydroxymethyl-1,2,3,5-tetrahydroimidazo[2,1-b]quinazolin-7-yl)oxybutyramide] | 27.5 nM | 9,800 | 90 nM | – |
| C[C@H]1C(=O)NC2=Nc3ccc(OCCCC(=O)N(C)C4CCCCC4)cc3CN21 [N-cyclohexyl-N-methyl-4-(2-oxo-3-L-methyl-1,2,3,5-tetrahydroimidazo[2,1-b]quinzolin-7-yl)oxybutyramide] | – | – | – | Blood Pressure, peak effect as % of max. isoproterenol (Mongrel dogs; i.v., 0.1 mg/kg): 97%; Heart Rate, peak effect as % of max. isoproterenol (Mongrel dogs; i.v., 0.1 mg/kg): 55%; Rt. Ventricular Contractile Force, peak effect as % of max. isoproterenol (Mongrel dogs; i.v., 0.1 mg/kg): 32%; Blood Pressure, peak effect as % of max. isoproterenol (Mongrel dogs; intraduodenal, 0.316 mg/kg): 17%; Heart Rate, peak effect as % of max. isoproterenol (Mongrel dogs; intraduodenal, 0.316 mg/kg): 11%; Rt. Ventricular Contractile Force, peak effect as % of max. isoproterenol (Mongrel dogs; intraduodenal, 0.316 mg/kg): 23%; Blood Pressure, peak effect as % of max. isoproterenol (Mongrel dogs; intraduodenal, 1.0 mg/kg): 54%; Heart Rate, peak effect as % of max. isoproterenol (Mongrel dogs; intraduodenal, 1.0 mg/kg): 44%; Rt. Ventricular Contractile Force, peak effect as % of max. isoproterenol (Mongrel dogs; intraduodenal, 1.0 mg/kg): 69%; Blood Pressure, peak effect as % of max. isoproterenol (Mongrel dogs; intraduodenal, 3.16 mg/kg): 94%; Heart Rate, peak effect as % of max. isoproterenol (Mongrel dogs; intraduodenal, 3.16 mg/kg): 58%; Rt. Ventricular Contractile Force, peak effect as % of max. isoproterenol (Mongrel dogs; intraduodenal, 3.16 mg/kg): 55% |
| CN(C(=O)CCCCOc1ccc2c(c1)CN1CC(=O)NC1=N2)C1CCCCC1 [N-cyclohexyl-N-methyl-5-(2-oxo-1,2,3,5-tetrahydroimidazo[2,1-b]quinazolin-7-yl)oxypentanamide] | 4.6 nM | 58,700 | 22 nM | – |
| CN(C(=O)CCCCCOc1ccc2c(c1)CN1CC(=O)NC1=N2)C1CCCCC1 [N-cyclohexyl-N-methyl-6-(2-oxo-1,2,3,5-tetrahydroimidazo[2,1-b]quinazolin-7-yl)oxyhexanamide] | 12 nM | 22,500 | 21 nM | – |
| CN(C(=O)CCCCCCOc1ccc2c(c1)CN1CC(=O)NC1=N2)C1CCCCC1 [N-cyclohexyl-N-methyl-7-(2-oxo-1,2,3,5-tetrahydroimidazo[2,1-b]quinazolin-7-yl)oxyheptanamide] | 16 nM | 16,800 | 45 nM | – |
| CN(C(=O)CCCOc1ccc2c(c1)CN1CC(=O)NC1=N2)C(c1ccccc1)c1ccccc1 [N-diphenylmethyl-N-methyl-4-(2-oxo-1,2,3,5-tetrahydroimidazo[2,1-b]quinazolin-7-yl)oxybutyramide] | 15 nM | 18,000 | 60 nM | – |
